Target: T1, recombinant human MPST (3-mercaptopyruvate sulfurtransferase) (Homo sapiens, UniProt P25325)
T1 sequence (P25325 1-317 isoform P25325-2): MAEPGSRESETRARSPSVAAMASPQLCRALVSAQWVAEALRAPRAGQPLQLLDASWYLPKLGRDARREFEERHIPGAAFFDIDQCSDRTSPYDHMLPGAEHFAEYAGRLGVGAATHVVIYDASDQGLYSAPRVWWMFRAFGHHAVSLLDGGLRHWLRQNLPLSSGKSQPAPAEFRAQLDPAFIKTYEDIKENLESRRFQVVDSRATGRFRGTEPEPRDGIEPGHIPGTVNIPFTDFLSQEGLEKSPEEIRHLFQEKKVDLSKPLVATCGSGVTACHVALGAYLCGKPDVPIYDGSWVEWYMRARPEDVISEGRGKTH
Assay: isothermal titration calorimetry
Assay type: binding

**Q.** `C[N+](C)(C)[C@@H](Cc1c[nH]c(=S)[nH]1)C(=O)[O-]` [ergothioneine] was tested. Which Kd did it give?
**A.** Its Kd is 3.2 µM.

Source: publication doi:10.1101/2024.04.10.588849v1 (biorxiv, 2024)
